The text below walks through data of PMC7956620 (Molecules, 2021).

The target in assay [1] is T1, 5-HT3A receptor Y153A mutant (Homo sapiens, UniProt P46098, Y148A).
T1 construct: host or cells: Xenopus laevis oocytes injected with in vitro transcribed mRNA
T1 sequence (P46098 24-478 Y148A): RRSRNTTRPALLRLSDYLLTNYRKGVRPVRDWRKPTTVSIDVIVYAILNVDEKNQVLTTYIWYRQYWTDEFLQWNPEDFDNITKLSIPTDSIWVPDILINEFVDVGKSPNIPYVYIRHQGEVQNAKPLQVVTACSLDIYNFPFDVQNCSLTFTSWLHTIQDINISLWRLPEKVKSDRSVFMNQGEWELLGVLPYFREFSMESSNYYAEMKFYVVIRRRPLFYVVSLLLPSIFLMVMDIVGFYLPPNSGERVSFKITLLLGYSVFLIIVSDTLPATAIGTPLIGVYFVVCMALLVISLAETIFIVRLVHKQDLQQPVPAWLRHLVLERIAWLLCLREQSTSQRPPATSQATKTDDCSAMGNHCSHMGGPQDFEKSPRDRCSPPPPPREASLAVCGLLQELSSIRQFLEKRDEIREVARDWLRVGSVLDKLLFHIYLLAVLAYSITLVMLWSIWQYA
The assay can be described thus: two-electrode voltage clamp, Y153A mutant receptor in Xenopus oocytes. The settings on record: 100 µM chanoclavine, read-out: Inhibition Percentage (%). It is filed as cell-based. As to the method: (§1) The site-directed mutation of one or two amino acids was performed using sense and antisense primers and Pfu polymerase (QuickChange Site-Directed Mutagenesis Kit; Agilent, Santa Clara, CA, USA) and amplified by polymerase chain reaction (PCR) to increase the target domain. After removing the existing methylated cDNA using Dpn Ⅰ, the PCR products were transformed into Escherichia coli strain DH5α. The cDNA of the 5-HT3A receptor was linearized by Xho Ⅰ at the end of the multi-cloning site, followed by transcription using T7 polymerase and a transcription kit (mMESSAGE mMACHINE T7 Transcription Kit; Thermo Fisher Scientific, Waltham, MA, USA). […]
(§2) To isolate oocytes, female Xenopus laevis were put into a container filled with ice and left for about one hour. […] When the Xenopus oocytes were ready for injection, 50 ng of mRNA was injected with a nanoliter injector (Drummond Scientific, Vernon Hills, IL, USA). […]
(§3) The oocytes in which mRNA was expressed during the incubation period allowed for the estimation of channel or receptor properties for observing drug and ligand potential interactions using a two-electrode voltage clamp (OC-725C; Warner Instruments, Hamden, CT, USA) and Digidata (1322A; Molecular Devices, Sunnyvale, CA, USA). […] The voltage and current electrodes were filled with 3 M KCl (0.3–0.7 MΩ) and analyzed at a −80 mV holding potential. […]

For assay [2], the target named is T2, 5-HT3A receptor L156A mutant (Homo sapiens, UniProt P46098, L151A).
T2 construct: host or cells: Xenopus laevis oocytes injected with in vitro transcribed mRNA
T2 sequence (P46098 24-478 L151A): T1 sequence (P46098 24-478 Y148A) with A125Y, L128A
The assay can be described thus: two-electrode voltage clamp, L156A mutant receptor in Xenopus oocytes. It is filed as cell-based. The settings on record: 100 µM chanoclavine, read-out: Inhibition Percentage (%). As to the method: as §1, §2, §3

Assay [3] deals with 5-HT3A receptor I228A mutant. The assay can be described thus: two-electrode voltage clamp, I228A mutant receptor in Xenopus oocytes. It is filed as cell-based, human. The settings on record: 100 µM chanoclavine. The method, then:
as §1, §2, §3

For assay [4], the target named is T3, 5-HT3A receptor F130A+N138A double mutant (Homo sapiens, UniProt P46098, F125A/N133A).
T3 construct: host or cells: Xenopus laevis oocytes injected with in vitro transcribed mRNA
T3 sequence (P46098 24-478 F125A/N133A): T1 sequence (P46098 24-478 Y148A) with F102A, N110A, A125Y
The assay can be described thus: two-electrode voltage clamp, F130A+N138A double mutant receptor in Xenopus oocytes. The assay is classed as cell-based. The settings on record: 300 µM chanoclavine with 5-HT. The method, then:
as §1, §2, §3

Positions count from the first letter of the chain named.

As for `CN[C@@H]1Cc2c[nH]c3cccc(c23)[C@H]1/C=C(\C)CO` [chanoclavine], the inhibition at 100 µM in assay [1] came out at 56.9 ± 3.6%; in assay [2], 46.1 ± 6.5%. In addition, in assay [3], the “Inhibition Percentage (%)” value is 66.16 ± 9.2%. Besides, in assay [4], the “effect on inward current” value is recorded as “not significantly decreased”.
